This is an account of results in patent US20150038435A1, “N-TERMINALLY MODIFIED OLIGOPEPTIDES AND USES THEREOF” (Novo Nordisk A/S, priority 2012, published 2015).

Non-standard residues stand in square brackets, D forms with d. Residues, ends and D or L forms follow the SMILES beside them. *: point of attachment. Lauroyl = CCCCCCCCCCCC(=O)* A value given as a limit tells only on which side of the number the result lay.

The subject of one series is Trypsin. The series is described as follows: Inhibition of enzymatic degradation of a model GLP-1 (FRET substrate) by trypsin. Type of series: biochemical. The conditions noted are these: for Slope of the initial increase in fluorescence obtained during incubation with 0.001 mg/ml Trypsin: compound 1 mM; for EC50: read-out: EC50 Trypsin (0.001 mg/ml), 0.001 mg/ml trypsin, 37° C. Put shortly: (§1)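 Initial-rate slopes of fluorescence rise (320 nm ex, 405 nm em), fitted over the linear early phase and averaged from duplicates, were plotted against inhibitor concentration and fitted logistically to give EC50. Reactions ran at 37° C in Dulbecco's PBS, with MCA/DNP GLP-1 FRET substrate added as 10 μl of 100 μM stock.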

A further series relates to Chymotrypsin. Description: Inhibition of enzymatic degradation of a model GLP-1 (FRET substrate) by chymotrypsin. Type of series: biochemical. The following applies: for Slope of the initial increase in fluorescence obtained during incubation with 0.001 mg/ml Chymotrypsin: compound 1 mM; for EC50: read-out: EC50 Chymotrypsin (0.001 mg/ml), 0.001 mg/ml chymotrypsin, 37° C., ± standard error if at least 3 measurements. Put shortly: as §1

Series [1] in a line: Hydrophobicity: retention time during reverse phase HPLC. The conditions noted are these: Acquity CSH C18; pH 7.2 buffer/CH3CN gradient; 40° C. It is filed as physicochemical. The text has this:
The retention time (RT) during reverse phase HPLC was taken as a measure of hydrophobicity of an N-terminally modified peptide or oligopeptide of the invention, where the connection is: The longer the RT, the more hydrophobic N-terminally modified peptide or oligopeptide. The following running conditions were applied during HPLC analysis:
Buffer B: 70% (v/v) aq. CH3CN

The nature of series [2]: Stability of N-terminally acylated peptides or oligopeptides in GI juice. Type of series: in vitro ADME. The conditions noted are these: degradation of the compound itself in jejunum extract from rat, read-out: t 1/2 in rat GI juice. How it is done: 96 well plates were coated by incubating with 0.4% Bovine serum albumin (BSA) solution for minimum of 60 min. To each well, 210 μl of buffer (Hank's balanced salt solution-4-(2-hydroxyethyl)-1-piperazineethanesulfonic acid (HBSS-HEPES) buffer) with 0.005% Tween 20 and 0.001% BSA, pH 6.5 precipitated with 3 vol. cold 96% ethanol (EtOH) w. 1% TFA), 30 μl of a substrate (100 μM insulin analogue or GLP-1 analogue in buffer) and 30 μl of N-terminally acylated peptide or oligopeptide of the invention (10 mM) were added. The plates were pre-incubated (before adding GI juice) for 60 min at 37° C. After addition of 30 μl of GI juice (10-times diluted in buffer), the plates were incubated for 60 min/37° C. on shaker. Samples (40 μl) were taken at 0, 5, 10, 20, 30 and 60 min, stopped with 3 vol. cold 96% EtOH w. 1% TFA and spun down in plates (4500 rpm for 10 min). Samples were diluted 5 times with the buffer prior to LC-MS analysis. Standard samples (0.1, 0.5, 1.0, 5.0, 10.0 μM) were prepared and treated as the samples. Standard curve was analysed both at the beginning and the end of the sequence. Two replicates of each tested conditions were included. Ion suppression was assessed by analyzing a standard at 1 μM and at 10 μM with 1 mM inhibitor present. Intact insulin or GLP-1 analoues were determined at each sample. The results were plotted against the incubation time. Half-lives of the insulin or GLP-1 analogues were determined by nonlinear regression of the results using, for example Graph Pad Prism. The half-lives were expressed relative to the half-live of the insulin or GLP-1 analogue without inhibitor present by dividing the half-lives obtained in the presence of inhibitor with those obtained in the absence of inhibitors. GI juice was prepared from male Sprague Dawley rats (200-250 g) by excising approximately 20 cm piece of mid jejunum and rinsing the inside with 2.5 ml 0.9% sodium chloride solution. The sodium chloride solution was collected in a centrifuge tube, pooled from all rats (20) and centrifuged at 4500 rpm./10 min/4° C. The supernatant was aliquoted in tubes and stored at −80° C.
Degradation of the N-terminally fatty acid modified peptide or oligopeptide of the invention themselves in jejunum extract from rat (GI juice) and determination of half-lives, was measured as described above (example 200).

Turning to `CCCCCCCCCCCC(=O)N[C@H](C)C(=O)N[C@H](C)C(=O)N1CCC[C@@H]1C(=O)N[C@H](Cc1ccccc1)C(=O)O` [Example 1, N-dodecanoyl-DAla-DAla-DPro-DPhe-OH] (Lauroyl-[dA][dA][dP][dF]-OH), in the series with Trypsin, the “Slope of the initial increase in fluorescence obtained during incubation with 0.001 mg/ml Trypsin” value is reported as 0.39 and the EC50 is over 500 µM. For the same compound, in the series with Chymotrypsin, the “Slope of the initial increase in fluorescence obtained during incubation with 0.001 mg/ml Chymotrypsin” value was found to be 0.41 and the EC50 was 476 µM. Further, in series [1], the “RT (retention time during reverse phase HPLC as a measure of hydrophobicity)” value came to 6.91 min. Moreover, the half-life at 1 mM in series [2] (male, Sprague Dawley, rat GI juice (jejunum extract), pH 6.5) is over 1000 min.

With `CCCCCCCCCCCC(=O)N[C@@H](C)C(=O)N[C@@H](C)C(=O)N1CCC[C@H]1C(=O)N[C@@H](Cc1ccccc1)C(=O)O` [Example 34, N-dodecanoyl-Ala-Ala-Pro-Phe-OH] (Lauroyl-AAPF-OH), in the series on Trypsin, the “Slope of the initial increase in fluorescence obtained during incubation with 0.001 mg/ml Trypsin” value is reported as 0.31 and the EC50 stood at 317 µM. Further, in the series with Chymotrypsin, the “Slope of the initial increase in fluorescence obtained during incubation with 0.001 mg/ml Chymotrypsin” value was 0.07 and the EC50 came out at 200 ± 26 µM. Moreover, the “RT (retention time during reverse phase HPLC as a measure of hydrophobicity)” value in series [1] worked out at 6.94 min. In addition, in series [2] (GI juice (jejunum extract)), the half-life turned out to be 3.5 min.
